Data as given in patent US20240246942A1, “KINASE INHIBITORS FOR THE TREATMENT OF NEURODEGENERATIVE DISEASES” (priority 2020, published 2024).

What was measured:
Assay in all cases: biochemical
[1] = target: T1, panel of 374 wild-type kinases (Homo sapiens, UniProt P35626); conditions: read-out: % Enzyme Activity (relative to DMSO controls), GRK3
T1 construct: purchased Reaction Biology Corporation
T1 sequence (P35626 1-688): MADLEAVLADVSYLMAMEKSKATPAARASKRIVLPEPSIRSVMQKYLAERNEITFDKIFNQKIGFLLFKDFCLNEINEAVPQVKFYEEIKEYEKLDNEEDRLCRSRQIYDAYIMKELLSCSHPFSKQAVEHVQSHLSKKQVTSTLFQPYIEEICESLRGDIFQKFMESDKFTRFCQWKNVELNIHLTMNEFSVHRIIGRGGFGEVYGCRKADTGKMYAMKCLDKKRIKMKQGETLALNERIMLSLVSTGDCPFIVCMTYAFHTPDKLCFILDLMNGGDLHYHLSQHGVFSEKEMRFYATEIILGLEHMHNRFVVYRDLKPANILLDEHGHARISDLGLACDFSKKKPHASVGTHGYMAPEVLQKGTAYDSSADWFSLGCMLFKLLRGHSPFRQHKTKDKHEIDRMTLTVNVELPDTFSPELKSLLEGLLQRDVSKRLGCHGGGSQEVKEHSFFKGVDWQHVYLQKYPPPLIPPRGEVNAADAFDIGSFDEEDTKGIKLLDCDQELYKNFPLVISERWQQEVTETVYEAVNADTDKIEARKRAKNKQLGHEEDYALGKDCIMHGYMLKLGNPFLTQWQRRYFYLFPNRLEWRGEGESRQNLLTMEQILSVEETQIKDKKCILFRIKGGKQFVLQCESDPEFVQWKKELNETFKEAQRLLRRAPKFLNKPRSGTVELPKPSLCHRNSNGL

[2] = target: T2, panel of 374 wild-type kinases (Homo sapiens, UniProt P43405); conditions: read-out: % Enzyme Activity (relative to DMSO controls), kinase SYK
T2 construct: purchased Reaction Biology Corporation

[3] = target: T3, panel of 374 wild-type kinases (Homo sapiens, UniProt Q14289); conditions: read-out: % Enzyme Activity (relative to DMSO controls), kinase PYK2
T3 construct: purchased Reaction Biology Corporation

[4] = target: T4, panel of 374 wild-type kinases (Homo sapiens, UniProt Q16644); conditions: read-out: % Enzyme Activity (relative to DMSO controls), MAPKAPK3
T4 construct: purchased Reaction Biology Corporation

[5] = target: T5, panel of 374 wild-type kinases (Homo sapiens, UniProt Q8NEV4); conditions: MYO3A, read-out: % Enzyme Activity (relative to DMSO controls)
T5 construct: purchased Reaction Biology Corporation

[6] = target: T6, panel of 374 wild-type kinases (Homo sapiens, UniProt Q96GX5); conditions: MASTL, read-out: % Enzyme Activity (relative to DMSO controls)
T6 construct: purchased Reaction Biology Corporation
T6 sequence (Q96GX5 1-879): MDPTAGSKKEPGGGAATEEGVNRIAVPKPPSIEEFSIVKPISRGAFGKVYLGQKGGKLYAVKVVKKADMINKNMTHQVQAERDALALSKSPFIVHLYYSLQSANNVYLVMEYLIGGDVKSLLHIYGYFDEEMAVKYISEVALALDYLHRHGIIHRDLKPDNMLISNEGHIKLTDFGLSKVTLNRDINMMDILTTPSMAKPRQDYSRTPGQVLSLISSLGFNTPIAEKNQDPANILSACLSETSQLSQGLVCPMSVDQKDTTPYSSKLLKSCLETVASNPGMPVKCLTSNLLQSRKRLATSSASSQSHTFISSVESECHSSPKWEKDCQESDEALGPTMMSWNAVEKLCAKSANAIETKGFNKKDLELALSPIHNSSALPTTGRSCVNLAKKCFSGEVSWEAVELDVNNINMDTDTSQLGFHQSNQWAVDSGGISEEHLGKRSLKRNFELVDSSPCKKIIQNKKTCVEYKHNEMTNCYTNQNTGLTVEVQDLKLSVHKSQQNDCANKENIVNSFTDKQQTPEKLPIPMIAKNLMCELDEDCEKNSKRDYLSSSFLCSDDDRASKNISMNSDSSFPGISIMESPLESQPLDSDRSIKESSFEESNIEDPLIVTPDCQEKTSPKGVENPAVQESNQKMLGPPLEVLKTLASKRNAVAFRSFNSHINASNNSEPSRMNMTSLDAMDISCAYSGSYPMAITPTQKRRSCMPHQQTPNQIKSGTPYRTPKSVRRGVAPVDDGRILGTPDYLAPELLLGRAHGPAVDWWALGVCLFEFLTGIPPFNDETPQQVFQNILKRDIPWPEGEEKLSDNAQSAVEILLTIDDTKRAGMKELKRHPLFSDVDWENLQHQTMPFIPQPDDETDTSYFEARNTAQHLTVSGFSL

[7] = target: T7, panel of 374 wild-type kinases (Homo sapiens, UniProt Q9BUB5); conditions: read-out: % Enzyme Activity (relative to DMSO controls), MNK1
T7 construct: purchased Reaction Biology Corporation

[8] = target: T8, panel of 374 wild-type kinases (Homo sapiens, UniProt Q9UBS0); conditions: read-out: % Enzyme Activity (relative to DMSO controls), kinase p70S6Kb/RPS6KB2
T8 construct: purchased Reaction Biology Corporation
T8 sequence (Q9UBS0 whole entry): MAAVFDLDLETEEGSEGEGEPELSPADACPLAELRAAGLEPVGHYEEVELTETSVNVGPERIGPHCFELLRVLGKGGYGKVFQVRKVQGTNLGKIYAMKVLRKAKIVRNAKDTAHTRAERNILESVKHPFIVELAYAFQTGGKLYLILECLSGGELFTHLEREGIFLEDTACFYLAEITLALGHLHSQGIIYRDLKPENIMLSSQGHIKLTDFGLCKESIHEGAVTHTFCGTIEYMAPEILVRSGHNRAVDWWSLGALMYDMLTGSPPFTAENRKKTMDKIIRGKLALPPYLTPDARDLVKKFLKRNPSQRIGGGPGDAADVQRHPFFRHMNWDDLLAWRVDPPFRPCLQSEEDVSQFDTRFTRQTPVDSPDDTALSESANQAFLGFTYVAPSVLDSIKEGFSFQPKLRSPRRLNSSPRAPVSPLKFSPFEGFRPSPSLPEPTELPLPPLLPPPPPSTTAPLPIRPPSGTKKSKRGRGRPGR

T3 sequence (Q14289 whole entry): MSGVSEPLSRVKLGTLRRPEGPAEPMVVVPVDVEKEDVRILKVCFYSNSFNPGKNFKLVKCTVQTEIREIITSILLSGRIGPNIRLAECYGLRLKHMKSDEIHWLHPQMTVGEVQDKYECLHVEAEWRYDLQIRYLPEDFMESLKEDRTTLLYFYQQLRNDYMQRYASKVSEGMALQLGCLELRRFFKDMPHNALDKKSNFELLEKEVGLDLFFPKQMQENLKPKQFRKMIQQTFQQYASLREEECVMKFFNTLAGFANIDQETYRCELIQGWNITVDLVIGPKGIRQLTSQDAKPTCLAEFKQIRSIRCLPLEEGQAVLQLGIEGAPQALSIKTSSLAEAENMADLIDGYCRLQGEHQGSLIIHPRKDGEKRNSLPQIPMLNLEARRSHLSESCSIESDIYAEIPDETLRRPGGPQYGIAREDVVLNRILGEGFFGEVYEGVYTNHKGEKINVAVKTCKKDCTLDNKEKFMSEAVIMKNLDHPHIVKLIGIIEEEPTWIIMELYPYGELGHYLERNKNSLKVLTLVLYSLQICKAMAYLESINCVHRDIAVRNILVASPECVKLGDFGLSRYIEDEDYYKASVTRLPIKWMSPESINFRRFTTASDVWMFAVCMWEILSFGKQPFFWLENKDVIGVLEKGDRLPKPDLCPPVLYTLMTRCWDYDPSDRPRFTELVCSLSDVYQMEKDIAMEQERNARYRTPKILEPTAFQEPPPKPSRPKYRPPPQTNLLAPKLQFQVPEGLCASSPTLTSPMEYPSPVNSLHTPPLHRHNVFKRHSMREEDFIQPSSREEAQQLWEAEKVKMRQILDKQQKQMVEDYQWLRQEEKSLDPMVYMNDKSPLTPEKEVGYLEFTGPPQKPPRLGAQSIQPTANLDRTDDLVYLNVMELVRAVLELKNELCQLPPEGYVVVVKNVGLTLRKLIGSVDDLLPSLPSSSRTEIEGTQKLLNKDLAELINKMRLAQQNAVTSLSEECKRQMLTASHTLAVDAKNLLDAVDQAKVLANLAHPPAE
T4 sequence (Q16644 whole entry): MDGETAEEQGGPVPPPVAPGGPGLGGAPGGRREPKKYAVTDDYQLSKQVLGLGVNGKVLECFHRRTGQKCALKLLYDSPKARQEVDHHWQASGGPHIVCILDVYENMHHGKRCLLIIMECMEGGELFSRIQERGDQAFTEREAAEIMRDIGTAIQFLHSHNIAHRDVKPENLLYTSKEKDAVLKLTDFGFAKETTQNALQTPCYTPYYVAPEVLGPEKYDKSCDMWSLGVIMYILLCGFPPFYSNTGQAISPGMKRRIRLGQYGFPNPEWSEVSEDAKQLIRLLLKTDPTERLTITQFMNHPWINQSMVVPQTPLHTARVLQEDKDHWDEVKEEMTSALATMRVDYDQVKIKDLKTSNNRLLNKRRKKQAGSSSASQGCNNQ
T7 sequence (Q9BUB5 whole entry): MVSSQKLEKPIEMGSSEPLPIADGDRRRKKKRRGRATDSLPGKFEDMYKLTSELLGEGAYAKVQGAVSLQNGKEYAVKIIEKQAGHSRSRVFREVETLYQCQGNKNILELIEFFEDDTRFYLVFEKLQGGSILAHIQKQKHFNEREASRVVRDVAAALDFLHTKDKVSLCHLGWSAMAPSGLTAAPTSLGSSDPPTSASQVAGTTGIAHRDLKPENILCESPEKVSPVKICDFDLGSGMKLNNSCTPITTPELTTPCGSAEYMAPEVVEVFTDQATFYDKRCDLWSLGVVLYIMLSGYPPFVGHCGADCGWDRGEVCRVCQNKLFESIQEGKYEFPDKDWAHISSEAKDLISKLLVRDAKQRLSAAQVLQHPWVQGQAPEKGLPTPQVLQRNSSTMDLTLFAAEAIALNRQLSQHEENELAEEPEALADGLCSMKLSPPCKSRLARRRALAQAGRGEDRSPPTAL
T5 sequence (Q8NEV4 whole entry): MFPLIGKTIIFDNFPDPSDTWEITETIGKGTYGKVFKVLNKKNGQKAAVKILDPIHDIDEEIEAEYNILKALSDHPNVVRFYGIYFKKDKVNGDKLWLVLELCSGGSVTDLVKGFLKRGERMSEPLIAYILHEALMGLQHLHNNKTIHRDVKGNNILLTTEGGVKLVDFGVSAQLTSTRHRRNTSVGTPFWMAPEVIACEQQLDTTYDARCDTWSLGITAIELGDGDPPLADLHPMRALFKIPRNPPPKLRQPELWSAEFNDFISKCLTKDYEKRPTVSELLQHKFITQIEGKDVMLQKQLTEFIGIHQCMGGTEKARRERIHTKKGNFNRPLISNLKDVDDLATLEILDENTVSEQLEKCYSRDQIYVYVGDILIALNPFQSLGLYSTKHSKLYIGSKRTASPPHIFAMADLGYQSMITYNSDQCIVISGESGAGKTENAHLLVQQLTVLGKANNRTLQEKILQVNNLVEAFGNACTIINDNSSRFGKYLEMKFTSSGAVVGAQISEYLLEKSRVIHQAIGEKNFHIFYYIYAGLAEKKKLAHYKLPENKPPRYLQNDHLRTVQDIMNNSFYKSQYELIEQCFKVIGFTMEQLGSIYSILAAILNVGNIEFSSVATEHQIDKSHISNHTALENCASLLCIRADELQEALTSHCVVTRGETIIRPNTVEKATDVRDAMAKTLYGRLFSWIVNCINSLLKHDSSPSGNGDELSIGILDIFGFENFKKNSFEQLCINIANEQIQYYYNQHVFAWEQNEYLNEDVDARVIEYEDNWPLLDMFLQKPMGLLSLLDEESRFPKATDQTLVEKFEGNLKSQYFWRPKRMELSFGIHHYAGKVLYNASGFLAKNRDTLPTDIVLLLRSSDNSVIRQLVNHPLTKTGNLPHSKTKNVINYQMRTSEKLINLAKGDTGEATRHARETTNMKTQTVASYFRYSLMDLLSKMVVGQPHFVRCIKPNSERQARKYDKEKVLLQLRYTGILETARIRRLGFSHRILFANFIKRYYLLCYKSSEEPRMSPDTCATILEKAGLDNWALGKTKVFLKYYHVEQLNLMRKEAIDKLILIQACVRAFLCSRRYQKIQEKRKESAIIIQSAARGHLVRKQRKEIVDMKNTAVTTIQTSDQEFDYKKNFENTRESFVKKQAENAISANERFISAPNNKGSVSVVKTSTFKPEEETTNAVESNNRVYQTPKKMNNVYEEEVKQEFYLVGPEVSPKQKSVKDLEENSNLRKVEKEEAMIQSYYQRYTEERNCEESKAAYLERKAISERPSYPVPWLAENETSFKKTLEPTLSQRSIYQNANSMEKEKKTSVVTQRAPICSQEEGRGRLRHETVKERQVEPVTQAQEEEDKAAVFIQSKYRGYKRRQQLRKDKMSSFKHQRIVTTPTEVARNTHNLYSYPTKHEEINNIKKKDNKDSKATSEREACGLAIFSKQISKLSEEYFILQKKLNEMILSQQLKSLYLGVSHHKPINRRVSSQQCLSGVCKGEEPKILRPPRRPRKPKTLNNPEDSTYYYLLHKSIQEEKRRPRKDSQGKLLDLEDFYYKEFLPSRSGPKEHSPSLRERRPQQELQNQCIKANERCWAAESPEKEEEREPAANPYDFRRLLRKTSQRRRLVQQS

O=C(Nc1cnn(-c2csc(C(=O)NC3COC3)c2)c1)Nc1ccccc1Cl [Compound 17, 4-(4-(3-(2-chlorophenyl)ureido)-1H-pyrazol-1-yl)-N-(oxetan-3-yl)thiophene-2-carboxamide]
remaining activity at 5 µM [1]: 102%
remaining activity at 5 µM [2]: 104%
remaining activity at 5 µM [3]: 93.5%
remaining activity at 5 µM [4]: 83.5%
remaining activity at 5 µM [5]: 94.5%
remaining activity at 5 µM [6]: 96.7%
remaining activity at 5 µM [7]: 94.3%
remaining activity at 5 µM [8]: 94.2%

Cc1sc(C(=O)NC2COC2)cc1-n1cc(NC(=O)Nc2c(F)cccc2Cl)cn1 [Compound 27, 4-(4-(3-(2-chloro-6-fluorophenyl)ureido)-1H-pyrazol-1-yl)-5-methyl-N-(oxetan-3-yl)thiophene-2-carboxamide]
remaining activity at 10 µM ([1]; 10 uM): 107%
remaining activity at 10 µM ([2]; 10 uM): 88.5%
remaining activity at 10 µM ([3]; 10 uM): 104%
remaining activity at 10 µM ([4]; 10 uM): 110%
remaining activity at 10 µM ([5]; 10 uM): 91.1%
remaining activity at 10 µM ([6]; 10 uM): 110%
remaining activity at 10 µM ([7]; 10 uM): 94.2%
remaining activity at 10 µM ([8]; 10 uM): 98.9%

O=C(Nc1cnn(-c2csc(C(=O)NC3COC3)c2)c1)Nc1c(F)cccc1Cl [Compound 25, 4-(4-(3-(2-chloro-6-fluorophenyl)ureido)-1H-pyrazol-1-yl)-N-(oxetan-3-yl)thiophene-2-carboxamide]
remaining activity at 5 µM [1]: 101%
remaining activity at 5 µM [2]: 90.3%
remaining activity at 5 µM [3]: 91%
remaining activity at 5 µM [4]: 95.6%
remaining activity at 5 µM [5]: 82.8%
remaining activity at 5 µM [6]: 93.7%
remaining activity at 5 µM [7]: 103%
remaining activity at 5 µM [8]: 101%
